One may read the IC50 as the concentration at which inhibition is half-maximal.

Consider 26 compounds from patent US20100144733A1, “Compounds, compositions and methods comprising heteroaromatic derivatives” (Institute for OneWorld Health, priority 2008, published 2010).

In one assay the target is T1, CFTR (Homo sapiens, UniProt P13569).
T1 construct: endogenous in cells; host or cells: T84 human colonic cells (ECACC)
T1 sequence (P13569 whole entry): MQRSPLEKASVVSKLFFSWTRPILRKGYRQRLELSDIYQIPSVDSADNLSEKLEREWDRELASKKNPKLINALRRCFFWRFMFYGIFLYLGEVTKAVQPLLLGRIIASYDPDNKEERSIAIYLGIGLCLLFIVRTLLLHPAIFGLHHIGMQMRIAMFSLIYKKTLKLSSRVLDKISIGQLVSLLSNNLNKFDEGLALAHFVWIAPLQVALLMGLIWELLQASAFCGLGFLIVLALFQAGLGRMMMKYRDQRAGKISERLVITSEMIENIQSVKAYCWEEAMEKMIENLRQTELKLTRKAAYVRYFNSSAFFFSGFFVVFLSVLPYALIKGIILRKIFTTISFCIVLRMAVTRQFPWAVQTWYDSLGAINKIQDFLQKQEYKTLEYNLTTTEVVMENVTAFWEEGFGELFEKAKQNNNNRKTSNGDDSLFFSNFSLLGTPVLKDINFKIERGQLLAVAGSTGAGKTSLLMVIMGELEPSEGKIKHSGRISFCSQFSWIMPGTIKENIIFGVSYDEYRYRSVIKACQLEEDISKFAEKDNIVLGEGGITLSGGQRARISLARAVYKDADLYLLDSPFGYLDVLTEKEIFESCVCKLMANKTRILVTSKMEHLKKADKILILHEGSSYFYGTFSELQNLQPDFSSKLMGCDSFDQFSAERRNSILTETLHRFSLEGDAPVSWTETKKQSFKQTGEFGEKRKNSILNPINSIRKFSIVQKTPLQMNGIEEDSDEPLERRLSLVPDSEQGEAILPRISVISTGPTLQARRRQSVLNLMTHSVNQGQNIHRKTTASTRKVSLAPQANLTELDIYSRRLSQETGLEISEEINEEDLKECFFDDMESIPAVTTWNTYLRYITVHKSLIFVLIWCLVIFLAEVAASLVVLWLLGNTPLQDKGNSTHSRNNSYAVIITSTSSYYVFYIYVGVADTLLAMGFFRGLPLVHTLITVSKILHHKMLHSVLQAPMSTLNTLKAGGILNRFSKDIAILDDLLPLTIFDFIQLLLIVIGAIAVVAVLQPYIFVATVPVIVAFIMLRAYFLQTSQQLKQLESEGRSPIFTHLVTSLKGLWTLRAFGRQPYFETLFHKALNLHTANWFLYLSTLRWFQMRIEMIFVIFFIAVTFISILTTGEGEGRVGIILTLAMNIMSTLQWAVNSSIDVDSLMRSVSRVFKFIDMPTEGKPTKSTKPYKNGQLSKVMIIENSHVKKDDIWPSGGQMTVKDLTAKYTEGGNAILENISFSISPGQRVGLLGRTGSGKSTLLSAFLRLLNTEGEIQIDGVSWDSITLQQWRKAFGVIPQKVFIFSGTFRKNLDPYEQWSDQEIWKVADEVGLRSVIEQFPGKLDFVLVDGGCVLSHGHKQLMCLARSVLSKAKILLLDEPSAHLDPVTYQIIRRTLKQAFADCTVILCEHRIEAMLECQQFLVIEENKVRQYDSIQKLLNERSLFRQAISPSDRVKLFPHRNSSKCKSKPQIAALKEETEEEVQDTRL
Briefly: T84 assay (FLIPR membrane potential dye, forskolin/IBMX-stimulated CFTR channel activity). The note with it: imidazole and triazole-containing compounds (Tables 13, 14, 14′), read-out: IC50 (μM) (T84 assay). The assay is classed as cell-based. Put shortly:
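Fluorescence from a membrane potential dye in T84 monolayers (HBSS with 10 mM Hepes) is followed each second for 150 s. Cells are exposed to test compound during the 45 min dye loading, then challenged with forskolin (10 μM) and IBMX (100 μM) to open CFTR. Inhibitors suppress the depolarization-driven fluorescence increase.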
Consider `COCCOCCOCCOCCON(Cc1ccc(Oc2ccccc2)cc1)C(=O)c1ncn(-c2cc(Cl)c(O)c(Cl)c2)n1` [122i, N-(2,5,8,11-tetraoxatridecan-13-yloxy)-1-(3,5-dichloro-4-hydroxyphenyl)-N-(4-phenoxybenzyl)-1H-1,2,4-triazole-3-carboxamide], for which the IC50 turned out to be 5.11 µM.

`O=C(NCc1cccc(C(F)(F)F)c1)c1ncn(-c2cc(Cl)c(O)c(Cl)c2)n1` [8i, 1-(3,5-dichloro-4-hydroxyphenyl)-N-(3-(trifluoromethyl)benzyl)-1H-1,2,4-triazole-3-carboxamide]: the IC50 amounted to 22.4 µM.

Regarding `CC(C)Oc1ccc(CNC(=O)c2ncn(-c3cc(Cl)c(O)c(Cl)c3)n2)cc1` [28i, 1-(3,5-dichloro-4-hydroxyphenyl)-N-(4-isopropoxybenzyl)-1H-1,2,4-triazole-3-carboxamide], the half-maximal inhibitory concentration (IC50) turned out to be 16.8 µM.

For the compound `CC(NC(=O)c1ncn(-c2cc(Cl)c(O)c(Cl)c2)n1)c1ccc(F)cc1` (centres unmarked) [9i, 1-(3,5-dichloro-4-hydroxyphenyl)-N-(1-(4-fluorophenyl)ethyl)-1H-1,2,4-triazole-3-carboxamide], the IC50 is 17.6 µM.

Turning to `CC(C)(C)CCN(Cc1cccc(OC(F)(F)F)c1)C(=O)c1ncn(-c2cc(Cl)c(O)c(Cl)c2)n1` [77i, 1-(3,5-dichloro-4-hydroxyphenyl)-N-(3,3-dimethylbutyl)-N-(3-(trifluoromethoxy)benzyl)-1H-1,2,4-triazole-3-carboxamide], the IC50 is 3.01 µM.

Staying with this assay, now noted: oxadiazole-containing compounds (a series), average of at least 2 runs unless annotated n = 1, read-out: IC50.
On to `O=C(NCc1ccc(Oc2ccc(OC(F)(F)F)cc2)cc1)c1nc(-c2cc(Cl)c(O)c(Cl)c2)no1` [181a, 3-(3,5-dichloro-4-hydroxyphenyl)-N-(4-(4-(trifluoromethoxy)phenoxy)benzyl)-1,2,4-oxadiazole-5-carboxamide], for which the IC50 amounted to 18.7 µM.

With `C#CCN(Cc1cccc(C(F)(F)F)c1)C(=O)c1nc(-c2cc(Cl)c(O)c(Cl)c2)no1` [109a, 3-(3,5-dichloro-4-hydroxyphenyl)-N-(prop-2-ynyl)-N-(3-(trifluoromethyl)benzyl)-1,2,4-oxadiazole-5-carboxamide], the IC50 was found to be 5.31 µM.

With `O=C(NCc1cccc(F)c1F)c1noc(-c2cc(Cl)c(O)c(Cl)c2)n1` [102a, 5-(3,5-dichloro-4-hydroxyphenyl)-N-(2,3-difluorobenzyl)-1,2,4-oxadiazole-3-carboxamide], the half-maximal inhibitory concentration (IC50) is 10.1 µM.

As to `O=C(Nc1ccc(Oc2ccccc2)cc1)c1nc(-c2cc(Br)c(O)c(Br)c2)no1` [104a, 3-(3,5-dibromo-4-hydroxyphenyl)-N-(4-phenoxyphenyl)-1,2,4-oxadiazole-5-carboxamide], the IC50 was 23 µM.

With `O=C(NCc1ccc(Oc2cccc(F)c2)cc1)c1nc(-c2cc(Cl)c(O)c(Cl)c2)no1` [194a, 3-(3,5-dichloro-4-hydroxyphenyl)-N-(4-(3-fluorophenoxy)benzyl)-1,2,4-oxadiazole-5-carboxamide], the IC50 was 10 µM.

In the case of `O=C(c1nc(-c2cc(Br)c(O)c(Br)c2)no1)N1CCN(c2ccc(F)cc2F)CC1` [31a], the half-inhibitory concentration (IC50) is 17.1 µM.

Regarding `CC(C)(C)C(=O)CN(Cc1ccc(Oc2ccccc2)cc1)C(=O)c1nc(-c2cc(Cl)c(O)c(Cl)c2)no1` [165a, 3-(3,5-dichloro-4-hydroxyphenyl)-N-(3,3-dimethyl-2-oxobutyl)-N-(4-phenoxybenzyl)-1,2,4-oxadiazole-5-carboxamide], the half-maximal inhibitory concentration (IC50) was 11.5 µM.

Regarding `O=C(c1nc(-c2cc(Br)c(O)c(Br)c2)no1)N1CCN(c2ccc(Cl)c(C(F)(F)F)c2)CC1` [4a, (4-(4-chloro-3-(trifluoromethyl)phenyl)piperazin-1-yl)(3-(3,5-dibromo-4-hydroxyphenyl)-1,2,4-oxadiazol-5-yl)methanone], the IC50 was 4.72 µM.

For `CC(NC(=O)c1nc(-c2cc(Cl)c(O)c(Cl)c2)no1)c1ccc(Br)cc1` (centres unmarked) [143a, N-(1-(4-bromophenyl)ethyl)-3-(3,5-dichloro-4-hydroxyphenyl)-1,2,4-oxadiazole-5-carboxamide], the IC50 amounted to 5.15 µM.

As to `O=C(NCc1cccc(-n2cccn2)c1)c1noc(-c2cc(Cl)c(O)c(Cl)c2)n1` [161a, N-(3-(1H-pyrazol-1-yl)benzyl)-5-(3,5-dichloro-4-hydroxyphenyl)-1,2,4-oxadiazole-3-carboxamide], the concentration for half-maximal inhibition (IC50) is 6.21 µM.

In the case of `O=C(NCc1ccc(Cl)c(C(F)(F)F)c1)c1nc(-c2cc(Br)c(O)c(Br)c2)no1` [30a, N-(4-chloro-3-(trifluoromethyl)benzyl)-3-(3,5-dibromo-4-hydroxyphenyl)-1,2,4-oxadiazole-5-carboxamide], the half-inhibitory concentration (IC50) was found to be 16.2 µM.

For the compound `COc1ccc(Oc2ccc(CNC(=O)c3nc(-c4cc(Cl)c(O)c(Cl)c4)no3)cc2)cc1Cl` [195a, N-(4-(3-chloro-4-methoxyphenoxy)benzyl)-3-(3,5-dichloro-4-hydroxyphenyl)-1,2,4-oxadiazole-5-carboxamide], the IC50 was determined as 8.92 µM.

Consider `CN(Cc1ccc(N2CCOCC2)cc1)C(=O)c1nc(-c2cc(Cl)c(O)c(Cl)c2)no1` [187a, 3-(3,5-dichloro-4-hydroxyphenyl)-N-methyl-N-(4-morpholinobenzyl)-1,2,4-oxadiazole-5-carboxamide], for which the concentration for half-maximal inhibition (IC50) stood at 24.4 µM.

For `O=C(c1nc(-c2cc(Cl)c(O)c(Cl)c2)no1)N(Cc1ccccc1)Cc1cccnc1` [167a, N-benzyl-3-(3,5-dichloro-4-hydroxyphenyl)-N-(pyridin-3-ylmethyl)-1,2,4-oxadiazole-5-carboxamide], the IC50 amounted to 9.61 µM.

As to `O=C(c1nc(-c2cc(Cl)c(O)c(Cl)c2)no1)N1CCN(c2cccc(C(F)(F)F)c2)CC1` [8a, (3-(3,5-dichloro-4-hydroxyphenyl)-1,2,4-oxadiazol-5-yl)(4-(3-(trifluoromethyl)phenyl) 4-(3-(trifluoromethyl)phenyl)piperazin-1-yl)methanone], the 50% inhibitory concentration (IC50) is 6.88 µM.

For the compound `CN(Cc1ccc(-c2ncccn2)cc1)C(=O)c1nc(-c2cc(Cl)c(O)c(Cl)c2)no1` [189a, 3-(3,5-dichloro-4-hydroxyphenyl)-N-methyl-N-(4-(pyrimidin-2-yl)benzyl)-1,2,4-oxadiazole-5-carboxamide], the IC50 is 16.9 µM.

Consider `CN(Cc1ccc(F)c(F)c1)C(=O)c1noc(-c2cc(Cl)c(O)c(Cl)c2)n1` [117a, 5-(3,5-dichloro-4-hydroxyphenyl)-N-(3,4-difluorobenzyl)-N-methyl-1,2,4-oxadiazole-3-carboxamide], for which the 50% inhibitory concentration (IC50) was determined as 19.9 µM.

On to `CCN(Cc1ccccc1)C(=O)c1nc(-c2cc(Cl)c(O)c(Cl)c2)no1` [140a, N-benzyl-3-(3,5-dichloro-4-hydroxyphenyl)-N-ethyl-1,2,4-oxadiazole-5-carboxamide], for which the IC50 is 19.9 µM.

The assay is the same for the next values; noted with them: thiadiazole-containing compounds (Table 12), read-out: IC50.
Turning to `O=C(COc1c(Cl)cc(-c2nnc(CN3c4ccccc4Sc4ccccc43)s2)cc1Cl)N(CCO)CCO` [9h, 2-(4-(5-((10H-phenothiazin-10-yl)methyl)-1,3,4-thiadiazol-2-yl)-2,6-dichlorophenoxy)-N,N-bis(2-hydroxyethyl)acetamide], the IC50 worked out at 9.69 µM.

The same assay, now with this note: triazine-containing compounds (Table 8 and 8′), read-out: IC50.
With `Oc1c(Br)cc(-c2cnc(OCc3cccc(OCc4ccccc4)c3)nn2)cc1Br` [89e, 4-(3-(3-(benzyloxy)benzyloxy)-1,2,4-triazin-6-yl)-2,6-dibromophenol], the IC50 worked out at 1.47 µM.

Still in this assay, the particulars now being: triazole-containing compounds (c series), average of at least 2 runs unless annotated n = 1, read-out: IC50.
As to `CN(Cc1cccc(C(F)(F)F)c1)C(=O)c1n[nH]c(-c2cc(Cl)c(O)c(Cl)c2)n1` [90c, 5-(3,5-dichloro-4-hydroxyphenyl)-N-methyl-N-(3-(trifluoromethyl)benzyl)-1H-1,2,4-triazole-3-carboxamide], the IC50 is 24.1 µM.
